From patent publication EP1134289A1, “METHOD FOR SCREENING CD14 AGONIST OR ANTAGONIST” (Takeda Chemical Industries, Ltd., priority 1998, dated 2000)

Test system: CD14 expression
Assay: Induction of CD14 expression in THP-1 cells (FITC-labeled anti-CD14 antibody, flow cytometry)
Format: cell-based, human
Conditions: VD3 about 100 nM, 3 days, 10,000 cells, 40 where no VD3 was added
Procedure: Human monocytic THP-1 cells (purchased from Dainippon Pharmaceutical Co., Ltd.) were used as cells. As a culture medium, RPMI medium 1640 with L-glutamine (RPMI; GIBCO Co.), to which inactivated fetal calf serum (GIBCO Co.) at a concentration of 10% (v/v) and penicillin-streptomycin involving penicillin G sodium and streptomycin sulfate at a concentration of 100 U/ml and 100 µg/ml respectively, were added. For induction of CD14 expression, the cells were suspended in the medium at a content of about 3 × 10^5 cells/ml, to which 1,25-dihydroxyvitamin D3 (VD3; Roussel-UCLAF S.A.) was added at a final concentration of about 100 nM. The cells were incubated in the presence of 5% CO2 in a CO2 incubator MODEL 6200-03 (National Appliance Company) at 37°C for 3 days. The cultured cells were suspended into PBS at 10^6 cells/ml, to which FITC-labeled anti-human CD14 monoclonal antibody clone. UCHM1 (Ancell Co.) was added at a concentration of 1.6 µg/ml. The mixture was incubated at 4°C for 1 hour. The cells were washed 3 times with PBS by centrifugation (1,000 rpm, 3 minutes, 20°C), suspended into 1,000 µl of PBS, and filtered through a tube with a filter (FALCON2235 (Becton Dickinson Co.)). For the resulting cell suspension, the amount of the FITC-labeled anti-CD14 antibody bound to 10,000 cells was determined using a flow cytometer Cyto ACE-300 (JASCO Coporation). […]

SMILES: C=C1/C(=C\C=C2/CCC[C@]3(C)[C@@H]([C@H](C)CCCC(C)(C)O)CC[C@@H]23)C[C@@H](O)C[C@@H]1O [VD3, 1,25-dihydroxyvitamin D3]
- mean fluorescence intensity (MFI) of bound FITC-labeled anti-CD14 antibody: 114.9
